The test system of data set [1] is National Cancer Institute (NCI) 60 cell line panel.
The nature of data set [2]: Field-based feeding-deterrent assays.
In another data set the test system is RXF 393. As to the kind of experiment: cells. The conditions noted are these: Homo sapiens, RXF 393, read-out: LC50.
Data set [3] concerns National Cancer Institute (NCI) 60 cell line panel. The data set is described as follows: cells. The conditions noted are these: read-out: LC50.
The test system of the next data set is SK-MEL-5. As to the kind of experiment: cells. The conditions noted are these: Homo sapiens, SK-MEL-5, read-out: LC50.
A further data set concerns M14. As to the kind of experiment: cells. The following applies: Homo sapiens, M14, read-out: LC50.
The subject of a further data set is LOX IMVI. The data set is described as follows: cells. The following applies: Homo sapiens, read-out: LC50.
The test system of a further data set is HCC-2998. The data set is described as follows: cells. The conditions noted are these: Homo sapiens, HCC 2998, read-out: LC50.

The results in this text go back to patent US10815212B2, “Cytotoxin compounds and methods of isolation” (priority 2004, dated 2020).

Molecules are shown by their SMILES. Where only a bound is given, the exact number is not on record here.

`C/C(C=O)=C\C(C)C1C/C(C)=C/C=C/CCC(OC(N)=O)C(O)/C=C/C(O)CCC/C=C/C(=O)O1` (stereo not shown) [Palmerolide E]: the “activity/potency relative to palmerolide A (in words)” value in [1] (NCI 60 cell line bioassay) is given as “reduced activity”. Also, the “bioactivity in field-based feeding-deterrent assays” value (“bioactivity” below) in data set [2] is recorded as “displayed bioactivity”.
Take `C=C(C)C/C(C)=C\C(=O)N/C=C/C(C)=C/C(C)C1C/C(C)=C/C=C/CCC(OC(N)=O)C(O)/C=C/C(O)CCC/C=C/C(=O)O1` (stereo not shown) [Palmerolide D]: the “bioactivity” value in [2] is reported as “displayed bioactivity”.
Consider `CC(C)=CC(=O)N/C=C/C(C)=C/C(C)C1C/C(C)=C/C=C/CCC(OC(N)=O)C(O)/C=C/C(O)CCC/C=C/C(=O)O1` (stereo not shown) [Palmerolide A], for which the CC50 in the data set on RXF 393 is 6.5 µM; in data set [3], over 10 µM; in the data set on SK-MEL-5 it was 6.8 µM; in the data set on M14, 0.076 µM; in the data set on LOX IMVI, 9.8 µM; in the data set with HCC-2998, 6.5 µM. In addition, the “cytotoxicity (in words)” value with UACC-62 was “displays cytotoxicity”. In addition, the “selectivity index among tested cell lines” value in [1] (most sensitive cells relative to other cell lines tested) is given as 10^3. Further, the “bioactivity” value in data set [2] was “displayed bioactivity”.
Take `CC(C)=CC(=O)N/C=C/C(C)=C/C(C)C1C/C(C)=C/C=C/CCCC(OC(N)=O)C(O)C(O)/C=C/CC/C=C/C(=O)O1` (stereo not shown) [Palmerolide C]: the “bioactivity” value in data set [2] is “displayed bioactivity”.
